{"source": "patent US20100222289A1", "about": "“METHODS FOR DIAGNOSIS AND TREATMENT OF CHRONIC FATIGUE SYNDROME” (CFS Research LLC, priority 2007, published 2010)", "key": {"HHV6 [1]": {"tested_on": "HHV6", "conditions": "cited from earlier work"}, "HCMV [2]": {"tested_on": "HCMV", "conditions": "cited from earlier work"}, "[3]": {"design": "species or system human", "conditions": "in vivo", "description": "Toxicity of Antiviral Nucleosides Patients were seen every 4 to 6 weeks, EIPS was recorded and complete blood count, aminotransferases, creatinine and urinalyses were done. Also recorded were abnormalities in white blood cells and platelet counts, aminotransferases, weight gain or loss, whether famciclovir was substituted for valacyclovir, dosage change for valganciclovir, valacyclovir, or famciclovir, and whether any of the following occurred: participation in blinded-placebo-controlled study, hospitalization, surgery, recovery, a cessation of medicines by patient choice, cessation of medicines by physician choice, relapse with worsening EIPS and returned for care."}, "[4]": {"tested_on": "Group A herpesvirus CFS (EBV, HCMV, HHV6)", "assay": "Example 4: Energy Index Point Score (EIPS) in Group A herpesvirus CFS patients on antiviral nucleosides", "assay_type": "in vivo, human", "text": "Background and Patient Population The international criteria for diagnosis of CFS was used. With strict confidentiality clinical files of CFS patients were identified by number only. A blinded code was maintained. Data were entered to the Axel computer system and analyzed anonymously. Patients with active EBV infection were identified by the presence of elevated serum ELISA antibodies to Epstein-Barr virus (EBV) IgM viral capsid antigen p18 peptide (Diasorin Inc., Stillwater, Minn.) and/or EBV, Early antigen (diffuse) 47 KD recombinant peptide (Diasorin, Stillwater, Minn.). Patients with active HCMV infection were identified by the presence of HCMV strain AD69 human fibroblast lysate, IgM and IgG ELISA and Copalis light-scatter, HCMV IgM p52 recombinant protein, UL44 and HCMV CM2, UL44 and part UL57 recombinant protein. Elevated IgM and IgG Human Herpesvirus 6 serum antibody titers ≧160 (LabCorp, Dublin, Ohio) were recorded. CFS patients had 24-Hr ECG Holter monitor recordings. When abnormal resting standard ECG and abnormal recurrent oscillating T-waves (flat, inverted) were present at baseline, radionuclide ventriculography by bicycle protocol stress studies were performed. The CFS patients reported here are termed Group A. They had negative IgM, IgG serum antibody titers to Borrelia burgdorferi, Western blot and ELISA; anti-streptolysin 0 titers <200 units; and negative serum IgM and IgG antibody titers to both Ehrlichia chaffeensis and Babesia microti (LabCorp).\nMeasurement of Degree of Fatigue (Physical Capacity) The Energy Index Point Score (EIPS) is a reliable validated metric assessing the degree of illness of CFS patients. With an EIPS scoring scale for reference on the wall in each examining room, the EIPS was determined by consensus of physician and patient. An EIPS of “0” is a bedridden patient. Patients were seen every 4-6 weeks and EIPS recorded. If an intercurrent illness was present EIPS determinations were delayed for 2 weeks. An EIPS of between 0 and 5 is associated with the presence of CFS. At an EIPS of between 6 and 10, the patient no longer meets criteria for diagnosis of CFS. A change in EIPS of 0.25 is small, a 0.5 change in EIPS is a medium change, and an EIPS change of ≧0.8 is a large effect size (p<0.05).\nValacyclovir and Famciclovir Administration to CFS patients with EBV infection Valacyclovir and famciclovir are pro-drugs well absorbed orally and, after reaching the circulation as acyclovir or penciclovir, respectively, inhibit EBV thymidine kinase efficiently. […]. Here, valacyclovir was the agent of first choice, but when diarrheas to valacyclovir developed, famciclovir was substituted. […]. If the patient weighed over 79.5 Kg, 1500 mg valacyclovir was given at each dose. Valacyclovir is excreted by the kidney by both glomerular filtration and tubular secretion. Valacyclovir renal calculi may result, and patients were advised to drink at least 1500 ml water daily. […]. Valacyclovir, once absorbed orally, is acyclovir in serum.\nCFS patients were given valganciclovir. Cautiously beginning, 450 mg daily was administered every morning after a meal for three days, and then increasing dosage to two doses of 450 mg, every morning for three days. They were then given two doses of 450 mg valganciclovir every morning followed by one 12 hours later as a continuing dosage. […] If the patient weighed over 90.0 Kg, 900 mg valganciclovir every 12 hours was given. Dosage was evaluated every 2-6 weeks for ongoing tolerance with normal values of hemograms, platelets and amino transferases and creatinines."}, "HCMV [5]": {"tested_on": "HCMV", "conditions": "versus HCMV; read-out: 50% inhibitory concentration; cited from earlier work"}, "[6]": {"conditions": "high dose repetitive human studies; cited from earlier work"}, "HCMV-EBV subset CFS": {"tested_on": "HCMV-EBV subset CFS", "assay": "Example 1: subset directed antiviral therapy of HCMV-EBV CFS patients", "assay_type": "in vivo, human", "conditions": "for clinical outcome: 10 CFS patients, treated according to subset for mean 2.6±0.4 years; for side effects: mean 2.6±0.4 years treatment", "description": "Ten patients with chronic fatigue syndrome (CFS) of 1.3-2.6 years duration had elevated serum antibody titers to cytomegalovirus (HCMV), and 9 of these patients also had elevated serum antibody titers to Epstein-Barr virus (EBV). They were classified: HCMV-EBV subset (nine patients) and HCMV subset (one patient) CFS. We determined whether subset classification is required for successful antiviral therapy of CFS.\nCFS patients with elevated serum antibody titers to HCMV and EBV were treated with valganciclovir (HCMV) and valacyclovir (EBV) according to subset classification for a mean of 2.6±0.4 years. […] Five patients continue no antiviral drug, and five patients require continuing antiviral suppressive therapy. […] Subset directed antiviral therapy leads to sustained recovery in CFS patients."}, "EBV [7]": {"tested_on": "EBV", "conditions": "cited from earlier work"}, "EBV CFS subset": {"tested_on": "EBV CFS subset", "assay": "Example 3: valacyclovir in EBV subset CFS, placebo-controlled trial and 36 month follow-up", "assay_type": "in vivo, human", "description": "We used subset classification of Epstein-Barr virus (EBV) in chronic fatigue (CFS). We (1) performed (Group 1) a blinded-random placebo-controlled trial of valacyclovir in EBV CFS subset, and (2) followed (Group 2) this EBV subset for thirty-six months. Patients were given valacyclovir 14.3 mg per kg every 6 hours. The validated Energy Index point score (EI) assessing physical functional capacity, Holter monitor, multigated (radionuclide) MUGA rest/stress ventriculographic examination, EBV serum IgM viral capsid antibodies (VCA), and EBV Early Antigen diffuse, (EA) were evaluated."}, "[8]": {"conditions": "cited from earlier work"}, "[9]": {"tested_on": "human bone marrow progenitor cells and lymphocyte blastogenesis", "conditions": "at this dosage; cited from earlier work"}, "HCMV [10]": {"tested_on": "HCMV", "conditions": "cited from earlier work", "remark": "listed apart in the source"}, "EBV [11]": {"tested_on": "EBV", "assay": "simultaneous tests, activity versus EBV compared to HCMV", "assay_type": "cell-based, Epstein-Barr virus", "text": "Therefore, valganciclovir was employed in CFS associated with HCMV or HHV6. Valganciclovir is efficiently absorbed as ganciclovir. It […] to human bone marrow progenitor cells and lymphocyte blastogenesis at this dosage. […] Food increases the bioavailability of both valacyclovir and valganciclovir."}, "HHV6 [12]": {"tested_on": "HHV6", "conditions": "cited from earlier work", "remark": "listed apart in the source"}, "[13]": {"conditions": "EBV single-virus subset (31 pts)"}, "[14]": {"conditions": "Group 2, thirty-six month follow-up"}, "[15]": {"conditions": "1 gm doses every 6 hours, 70 kg patients"}}, "data": [{"smiles": "CC(=O)OCC(CCn1cnc2cnc(N)nc21)COC(C)=O", "note": "[famciclovir]", "values": [{"measurement": "effective therapeutic agent for HHV6", "setting": "HHV6 [1]", "value": "not effective therapeutic agents"}, {"measurement": "effective therapeutic agent for HCMV", "setting": "HCMV [2]", "value": "not effective therapeutic agents"}, {"measurement": "toxicity", "setting": "[3]", "value": "no toxicity"}, {"measurement": "EIPS Change", "setting": "[4]; [13]", "value": "+2"}]}, {"smiles": "Nc1nc(O)c2ncn(COC(CO)CO)c2n1", "note": "[ganciclovir]", "values": [{"measurement": "IC50", "setting": "HCMV [5]", "value": "0.53 ± 0.04", "unit": "µM"}]}, {"smiles": "CC(C)Nc1nc2cc(Cl)c(Cl)cc2n1[C@H]1O[C@@H](CO)[C@H](O)[C@@H]1O", "note": "[maribavir, 1H-β-L-ribofuranoside-2-isopropylamino-5,6-dichlorobenzimidazole]", "values": [{"measurement": "IC50", "setting": "HCMV [5]", "value": "0.12 ± 0.01", "unit": "µM"}, {"measurement": "side effects", "setting": "[6]", "value": "changes in taste and headache"}]}, {"smiles": "CC(C)[C@H](N)C(=O)OCCOCn1cnc2c(=O)[nH]c(N)nc21", "note": "[valacyclovir]", "values": [{"measurement": "effective therapeutic agent for HHV6", "setting": "HHV6 [1]", "value": "not an effective therapeutic antiviral agent"}, {"measurement": "clinical outcome", "setting": "HCMV-EBV subset CFS", "value": "returned to health and remain well"}, {"measurement": "side effects", "setting": "HCMV-EBV subset CFS", "value": "No significant side effects"}, {"measurement": "effective therapeutic agent for HCMV", "setting": "HCMV [2]", "value": "not an effective therapeutic antiviral agent"}, {"measurement": "minimum inhibitor concentration (MIC)", "setting": "EBV [7]", "value": "1.5 to 3.0", "unit": "mg/L"}, {"measurement": "increase in energy expenditure corresponding to EI change", "setting": "EBV CFS subset; Group 1, after six months", "value": 122, "unit": "kcal/day"}, {"measurement": "increase in mean least square EI Point Score", "setting": "EBV CFS subset; Group 1, after six months, 14.3 mg per kg every 6 hours", "value": "+1.12 units"}, {"measurement": "EI Point Scores", "setting": "EBV CFS subset; [14]", "value": "increased progressively"}, {"measurement": "abnormal cardiac wall motion", "setting": "EBV CFS subset; [14]", "value": "improved"}, {"measurement": "serum antibody titers to EBV VCA IgM", "setting": "EBV CFS subset; [14]", "value": "decreased"}, {"measurement": "sinus tachycardias", "setting": "EBV CFS subset; [14]", "value": "decreased"}, {"measurement": "peak acyclovir levels", "setting": "[8]; [15]", "value": "7.9 to 21", "unit": "µg/mL"}, {"measurement": "time of peak acyclovir levels", "setting": "[8]; [15]", "value": "90 to 120", "unit": "min"}, {"measurement": "toxicity", "setting": "[3]", "value": "no toxicity"}, {"measurement": "EIPS Change", "setting": "[4]; [13]", "value": "+2"}]}, {"smiles": "CC(C)[C@H](N)C(=O)OCC(CO)OCn1cnc2c(=O)nc(N)[nH]c21", "note": "(some centres unmarked) [valganciclovir]", "values": [{"measurement": "effective therapeutic agent for HHV6", "setting": "HHV6 [1]", "value": "not effective therapeutic agents"}, {"measurement": "effect on human bone marrow progenitor cells and lymphocyte blastogenesis", "setting": "[9]", "value": "inhibitory"}, {"measurement": "clinical outcome", "setting": "HCMV-EBV subset CFS", "value": "returned to health and remain well"}, {"measurement": "side effects", "setting": "HCMV-EBV subset CFS", "value": "No significant side effects"}, {"measurement": "MIC", "setting": "HCMV [10]", "value": "0.15 to 0.3", "unit": "mg/L"}, {"measurement": "effective therapeutic agent for HCMV", "setting": "HCMV [2]", "value": "not effective therapeutic agents"}, {"measurement": "activity versus EBV as compared to HCMV", "setting": "EBV [11]", "value": "one-tenth as active"}, {"measurement": "average peak concentrations (Cmax)", "setting": "[8]; after 0.5-1.0 gm doses", "value": 6.1, "unit": "µg/mL"}, {"measurement": "aminotransferases", "setting": "[3]", "value": "increases in aminotransferases were observed"}, {"measurement": "changes in hemoglobin or platelet levels", "setting": "[3]", "value": "no changes"}, {"measurement": "EIPS Change", "setting": "[4]; EBV/HCMV subset (38 pts)", "value": "+1.8"}, {"measurement": "EIPS Change", "setting": "[4]; EBV/HHV6 subset (14 pts)", "value": "+2.0"}, {"measurement": "EIPS Change", "setting": "[4]; HCMV single-virus subset (15 pts)", "value": "+1.5"}, {"measurement": "EIPS Change", "setting": "[4]; HCMV/HHV6 subset (7 pts)", "value": "+1.7"}, {"measurement": "EIPS Change", "setting": "[4]; HHV6 single-virus subset (2 pts)", "value": "+2.7"}, {"measurement": "MIC", "setting": "HHV6 [12]", "value": "0.15 to 0.3", "unit": "mg/L"}]}]}
